US9839642B2, “Beta-tetrazolyl-propionic acids as metallo-beta-lactamase inhibitors” (priority 2014, dated 2017)
Like-named read-outs stand apart in the source and are kept apart here.

What was measured:
NDM-1 = NDM-1 (Klebsiella pneumoniae, UniProt C7C422); test: Enzyme activity: determination of IC50, fluorescence assay with CCF2-FA substrate; assay type: biochemical; settings: CCF2-FA 1.25 μM, 2 hours at 25° C., read-out: NDM1 IC50
Experimental: (§1) Enzyme Activity: Determination of IC50
(§2) The Class B enzyme activities were measured in the presence of a compound of the EXAMPLES as a test inhibitor in a fluorescence assay against a commercially available substrate consisting of a cephalosporin core linking 7-hydroxycoumarin to fluorescein (CCF2-FA; Life Technologies, Grand Island, N.Y.). The enzyme (NDM-1, IMP-1 or VIM-1) and the substrate were diluted in 100 mM KH2PO4 buffer (pH 7) containing 0.005% Tween-20 and 10 μM ZnSO4. In the assay, the final concentration of enzyme was 1 pM, 2 pM and 30 pM for NDM-1, IMP-1 and VIM-1, respectively, and the final concentration of CCF2-FA was 1.25 μM. The test inhibitor was dissolved in DMSO and diluted 1:50 in the assay, resulting in a final concentration range of 20 μM to 0.00063 μM. In a 384-well microplate, the test inhibitor was incubated with the metallo-β-lactamase enzyme and the substrate for 2 hours at 25° C. Fluorescence at 460 nm following excitation at 405 nm was measured. The IC50 value was determined from semi-logarithmic plots of enzyme inhibition versus inhibitor concentration, with a curve generated using a 4-parameter fit.

VIM-1 = VIM-1 (Pseudomonas aeruginosa, UniProt A0A0F7KYQ8); test: as above; assay type: biochemical; settings: CCF2-FA 1.25 μM, 2 hours at 25° C., read-out: VIM1 IC50
Experimental: as §1, §2

IMP-1 = IMP-1 (Serratia marcescens, UniProt P52699); test: as above; assay type: biochemical; settings: CCF2-FA 1.25 μM, 2 hours at 25° C., read-out: IMP1 IC50
Experimental: as §1, §2

[1] = tested on: Klebsiella pneumoniae expressing VIM-1 (IHMA599644); test: Antibiotic potentiation activity: synergistic concentration (MITC95) with imipenem, growth by OD600; assay type: cell-based
Experimental: (§3) Antibiotic Potentiation Activity: Determination of Synergistic Concentration
(§4) The bacterial strains tested included the clinical strains Escherichia coli expressing NDM-1 (CLB30005, CLB30016), Serratia marcescens expressing IMP-1 (CL5741), and Klebsiella pneumoniae expressing VIM-1 (IHMA599644). Inhibitor activity was measured in the presence and absence of imipenem or ceftazidime in a 384-well microplate.
(§5) The clinical strains CLB30016, CL5741, and IHMA599644 were grown on trypticase soy agar containing 5% sheep's blood. The clinical strain CLB30005 was grown on Mueller Hinton broth agar containing 8 μg/ml imipenem. The bacteria on agar plates were incubated overnight at 35° C. with ambient humidity (achieved from an open pan of water inside the incubator). The following day, individual colonies from each clinical strain were picked and resuspended in 5 ml saline to attain an OD600 of 0.14, 0.11, 0.15 and 0.13, for CLB30005, CLB30016, CL5741 and IHMA599644, respectively. These were further diluted 1:100 into 1.1×CAMHB and used to inoculate the test wells as described below.
(§6) Imipenem in 10 mM 3-(N-morpholino)propanesulfonic acid (MOPS, pH 7) was stored in single use aliquots at −80° C. Test inhibitors were dissolved in DMSO and diluted 1:50 in the assay, resulting in a final concentration range of 200 μM to 0.195 μM. On the day of the assay, 4 μl of antibiotic was added to 45 μl of bacteria followed by 1 μl of test compound and mixed by pipetting and with an orbital shaker. The concentration of antibiotic used in the assay was 1 μg/ml or 4 μg/ml. Microplates were covered and incubated at 35° C. for 22 hours to 24 hours. At the end of the incubation, absorbance was determined using a spectrophotometer. The synergistic concentration of MBLI was determined by identifying the lowest concentration of test compound in the presence of a given concentration of antibiotic that was required to inhibit 95% of the growth of the bacteria.
(§7) Representative compounds of the present invention display a synergistic effect. For example, representative compounds of EXAMPLES 1-456 were determined to restore susceptibility to imipenem at concentrations of 200 μM or less.

[2] = tested on: Serratia marcescens expressing IMP-1 (CL5741); test: as above; assay type: cell-based
Experimental: as §3, §4, §5, §6, §7

[3] = tested on: Escherichia coli expressing NDM-1 (CLB30016); test: as above; assay type: cell-based
Experimental: as §3, §4, §5, §6, §7

[4] = 95% inhibition of bacterial growth, strain IHMA599644
[5] = 95% inhibition of bacterial growth, strain CL5741
[6] = 95% inhibition of bacterial growth, strain CLB30016
[7] = K. pneumoniae IHMA599644 (VIM-1), 95% inhibition of growth
[8] = S. marcescens CL5741 (IMP-1), 95% inhibition of growth
[9] = E. coli CLB30016 (NDM-1), 95% inhibition of growth

NDM-1, sequence (C7C422 29-270, looked up, species assumed): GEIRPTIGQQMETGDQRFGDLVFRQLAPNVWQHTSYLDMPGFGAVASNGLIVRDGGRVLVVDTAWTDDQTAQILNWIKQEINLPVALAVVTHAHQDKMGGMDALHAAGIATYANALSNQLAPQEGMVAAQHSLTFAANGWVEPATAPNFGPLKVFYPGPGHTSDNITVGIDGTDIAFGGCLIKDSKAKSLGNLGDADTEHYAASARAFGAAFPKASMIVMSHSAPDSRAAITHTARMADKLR
IMP-1, sequence (P52699 19-246, looked up, species assumed): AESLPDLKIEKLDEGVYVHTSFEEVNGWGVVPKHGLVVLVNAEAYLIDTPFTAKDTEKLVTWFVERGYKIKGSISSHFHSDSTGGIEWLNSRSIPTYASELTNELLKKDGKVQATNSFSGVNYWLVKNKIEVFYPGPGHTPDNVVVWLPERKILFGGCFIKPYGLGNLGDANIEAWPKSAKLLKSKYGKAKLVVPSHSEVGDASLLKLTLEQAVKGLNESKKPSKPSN

Compound	IC50 (NDM-1; enzyme 1 pM) [nM]	IC50 (VIM-1; enzyme 30 pM) [nM]	IC50 (IMP-1; enzyme 2 pM) [nM]	VIM1 KP599644 MITC95 [1, 4] [µM]	IMP1 SM5741 MITC95 [2, 5] [µM]	NDM1 EC30016 MITC95 [3, 6] [µM]	IC50 (NDM-1; NDM-1 enzyme 1 pM) [nM]	IC50 (VIM-1; VIM-1 enzyme 30 pM) [nM]	IC50 (IMP-1; IMP-1 enzyme 2 pM) [nM]	VIM1 KP599644 MITC95 [1, 7] [µM]	IMP1 SM5741 MITC95 [2, 8] [µM]	NDM1 EC30016 MITC95 [3, 9] [µM]
O=C(O)[C@@H](C1CCCC1)[C@H](Cc1ccc(C2=CCNC2)cc1)c1nnn[nH]1 [Example 61, (2S,3S)-2-cyclopentyl-4-(4-(2,5-dihydro-1H-pyrrol-3-yl)phenyl)-3-(1H-tetrazol-5-yl)butanoic acid]	32	1.9	150	6.2	3.9	2.3						
CCC[C@H](C(=O)O)[C@H](Cc1ccccc1-c1cccc(C(N)=O)c1)c1nn[nH]n1 [Example 399, (2S)-2-[(1S)-2-(3′-carbamoylbiphenyl-2-yl)-1-(2H-tetrazol-5-yl)ethyl]pentanoic acid]							1.4	1.6	430	25	25	6.2
CC(C)C[C@H](C(=O)O)[C@H](Cc1ccc(C2CCNC2)nc1)c1nnn[nH]1 (stereo partly drawn) [Example 100, (2S)-4-methyl-2-((1S)-2-(6-(pyrrolidin-3-yl)pyridin-3-yl)-1-(1H-tetrazol-5-yl)ethyl)pentanoic acid]	280	4.9	2900	12.5	25	6.2						
CCC[C@H](C(=O)O)[C@H](Cc1ccc(CN2CCNCC2)cc1)c1nnn[nH]1 [Example 55, (S)-2-((S)-2-(4-(piperazin-1-ylmethyl)phenyl)-1-(1H-tetrazol-5-yl)ethyl)pentanoic acid]	120	19	810	25	18.8	6.2						
CC(C)(C)[C@H](C(=O)O)[C@H](Cc1ccc(C2CCNC2)cc1)c1nnn[nH]1.O=C(O)C(F)(F)F (stereo partly drawn) [Example 431, 3-(4-((2S,3R)-3-carboxy-4,4-dimethyl-2-(1H-tetrazol-5-yl)pentyl)phenyl)pyrrolidin-1-ium 2,2,2-trifluoroacetate]							71.7	16.6	32.4	12.5	2.344	6.25
CC(C)C[C@H](C(=O)O)[C@H](Cc1ccc(N2CC(S(C)(=O)=O)C2)nc1)c1nnn[nH]1 [Example 335, (2S)-4-methyl-2-[(1S)-2-{6-[3-(methylsulfonyl)azetidin-1-yl]pyridin-3-yl}-1-(1H-tetrazol-5-yl)ethyl]pentanoic acid]							59	4.9	56	75	3.1	6.2
CCC[C@H](C(=O)[O-])[C@H](Cc1ccc(C2CC[N+](C)(C)C2)cc1)c1nnn[nH]1 (stereo partly drawn) [Example 418, (2S)-2-((1S)-2-(4-(1,1-dimethylpyrrolidin-1-ium-3-yl)phenyl)-1-(1H-tetrazol-5-yl)ethyl)pentanoate]							405	30.8	1990	25	37.5	18.75
CCC[C@H](C(=O)O)[C@H](Cc1cccc(C(N)=O)c1)c1nn[nH]n1 [Example 46, (2S)-2-[(1S)-2-(3-carbamoylphenyl)-1-(2H-tetrazol-5-yl)ethyl]pentanoic acid]	70	5.9	1600	12.5	37.5	9.4						
CC(C)C[C@H](C(=O)O)[C@H](Cc1ccc(Oc2ccccn2)nc1)c1nn[nH]n1 [Example 391, (2S)-4-methyl-2-[(1S)-2-[6-(pyridin-2-yloxy)pyridin-3-yl]-1-(2H-tetrazol-5-yl)ethyl]pentanoic acid]							44	52	640	100	25	25
CCC[C@H](C(=O)O)[C@H](Cc1cnn2ncccc12)c1nnn[nH]1 [Example 156, (S)-2-((S)-2-(pyrazolo[1,5-b]pyridazin-3-yl)-1-(1H-tetrazol-5-yl)ethyl)pentanoic acid]	150	1.5	5400	25	>200	31						
CC(C)C[C@H](C(=O)O)[C@H](Cc1ccc(N2CCCC2)nc1)c1nnn[nH]1 [Example 304, (2S)-4-methyl-2-[(1S)-2-(6-pyrrolidin-1-ylpyridin-3-yl)-1-(1H-tetrazol-5-yl)ethyl]pentanoic acid]							170	7.8	1300	18.8	38	4.7
CC(C)C[C@H](C(=O)O)[C@H](Cc1ccc(N2CCC(CN)CC2)nc1)c1nnn[nH]1 [Example 307, (2S)-2-[(1S)-2-{6-[4-(aminomethyl)piperidin-1-yl]pyridin-3-yl}-1-(1H-tetrazol-5-yl)ethyl]-4-methylpentanoic acid]							120	24	390	25	6.2	4.7
CCC[C@H](C(=O)[O-])[C@H](Cc1ccc(C2CC[N+](C)(C)CC2)nc1)c1nnn[nH]1 [Example 291, (S)-2-((S)-2-(6-(1,1-dimethylpiperidin-1-ium-4-yl)pyridin-3-yl)-1-(1H-tetrazol-5-yl)ethyl)pentanoate]							650	120	6500	38	50	3.1
CCC[C@H](C(=O)O)[C@H](Cc1ccc2c(c1)CNC2)c1nnn[nH]1 [Example 437, (S)-2-((S)-2-(isoindolin-5-yl)-1-(1H-tetrazol-5-yl)ethyl)pentanoic acid compound with 2,2,2-trifluoroacetic acid (1:1)]							533	1.73	11400	6.25	150	4.688
CCC[C@H](C(=O)O)[C@H](Cc1ccc(C2=CCNC2)nc1)c1nnn[nH]1 [Example 164, (2S)-2-[(1S)-2-[6-(2,5-dihydro-1H-pyrrol-3-yl)pyridin-3-yl]-1-(1H-tetrazol-5-yl)ethyl]pentanoic acid]	530	3.9	13000	18.8	50	9.4						
